Our source for the IC50 values is paper PMC2248166, “Quantitative peptide binding motifs for 19 human and mouse MHC class I molecules derived using positional scanning combinatorial peptide libraries” (Immunome Research, 2008).

Where a SMILES comes first, the peptide text is derived from it.

This assay has as its target HLA B*1503 (Homo sapiens, UniProt P01889, A329T/A93T/A95T/C349S/D201E/D98Y/E187L/E204Q/K202T/N87E/Q94N/R155S/R180L/S121R/S35A/V306I/V36M/Y140S/Y91S). Description: biochemical. The assay is classed as binding.

Broadly, the IC50 is the point on the concentration scale where inhibition reaches its midpoint. Read a low IC50 as higher potency. On to `CC[C@H](C)[C@H](NC(=O)[C@H](CCSC)NC(=O)[C@H](C)NC(=O)[C@H](C)NC(=O)[C@@H](N)Cc1ccccc1)C(=O)N[C@H](C(=O)N[C@@H](CCCNC(=N)N)C(=O)N[C@@H](CO)C(=O)N[C@@H](Cc1ccccc1)C(=O)O)[C@@H](C)CC` [3102.1048] (H-FAAMIIRSF-OH), for which the 50% inhibitory concentration (IC50) was found to be 1.3 nM. This lies in the single-digit nanomolar range.

Molecule `CSCC[C@H](NC(=O)[C@H](CC(C)C)NC(=O)[C@H](CO)NC(=O)[C@H](CC(N)=O)NC(=O)[C@H](CC(N)=O)NC(=O)[C@H](CC(C)C)NC(=O)[C@@H](N)CS)C(=O)N[C@@H](CO)C(=O)N[C@@H](Cc1ccccc1)C(=O)O` [3102.1050] (H-CLNNSLMSF-OH) returned an IC50 of 0.77 nM.

`CC(C)C[C@H](NC(=O)[C@H](CO)NC(=O)[C@H](CO)NC(=O)[C@@H](NC(=O)[C@H](CCC(=O)O)NC(=O)[C@@H](NC(=O)[C@H](CO)NC(=O)[C@H](CCCCN)NC(=O)[C@@H](N)CC(C)C)C(C)C)[C@@H](C)O)C(=O)O` [3102.1056] (H-LKSVETSSL-OH) yielded an IC50 of 3.8 nM.

`CC(C)C[C@H](NC(=O)[C@@H](N)CC(N)=O)C(=O)N[C@@H](Cc1ccc(O)cc1)C(=O)N[C@@H](Cc1ccccc1)C(=O)N[C@@H](CS)C(=O)N[C@H](C(=O)N[C@@H](CCCCN)C(=O)N[C@@H](CO)C(=O)N[C@@H](Cc1ccccc1)C(=O)O)[C@@H](C)O` [3102.1057] (H-NLYFCTKSF-OH) showed an IC50 of 4.3 nM.

As to `CC[C@H](C)[C@H](NC(=O)[C@@H](NC(=O)[C@@H](NC(=O)[C@H](CCCNC(=N)N)NC(=O)[C@H](CC(N)=O)NC(=O)[C@H](Cc1ccccc1)NC(=O)[C@H](CO)NC(=O)[C@@H](N)C(C)C)C(C)C)C(C)C)C(=O)N[C@@H](Cc1ccccc1)C(=O)O` [3102.1059] (H-VSFNRVVIF-OH), the IC50 was 1.1 nM.

Take `CC(C)C[C@H](NC(=O)[C@H](CC(N)=O)NC(=O)[C@H](CC(C)C)NC(=O)[C@H](CCCNC(=N)N)NC(=O)[C@H](CCCNC(=N)N)NC(=O)[C@H](CO)NC(=O)[C@H](CCCCN)NC(=O)[C@@H](N)CO)C(=O)N[C@@H](Cc1ccccc1)C(=O)O` [3102.1061] (H-SKSRRLNLF-OH): it took 2.4 nM to reach half-maximal inhibition (IC50).

In turn, `CC(C)[C@H](NC(=O)[C@H](CC(=O)O)NC(=O)[C@H](CCC(=O)O)NC(=O)[C@@H](NC(=O)[C@H](CO)NC(=O)[C@@H](N)CCCCN)C(C)C)C(=O)N[C@@H](CO)C(=O)N[C@@H](C)C(=O)N[C@@H](Cc1ccccc1)C(=O)O` [3102.1062] (H-KSVEDVSAF-OH) yielded an IC50 of 14 nM.

Molecule `CC[C@H](C)[C@H](N)C(=O)N[C@@H](CCSC)C(=O)N[C@@H](CO)C(=O)N[C@@H](CC(C)C)C(=O)N[C@@H](Cc1ccccc1)C(=O)N[C@@H](CO)C(=O)N[C@H](C(=O)N[C@@H](CO)C(=O)N[C@@H](C)C(=O)O)[C@@H](C)O` [3102.1063] (H-IMSLFSTSA-OH) displayed a half-inhibitory concentration (IC50) of 7.7 nM.

Take `CC[C@H](C)[C@H](N)C(=O)N[C@@H](CO)C(=O)N[C@@H](CO)C(=O)N[C@@H](CCCNC(=N)N)C(=O)N[C@@H](CCC(=O)O)C(=O)N[C@@H](CO)C(=O)N[C@H](C(=O)N[C@@H](CO)C(=O)N[C@@H](Cc1ccccc1)C(=O)O)C(C)C` [3102.1068] (H-ISSRESVSF-OH): the IC50 is 12 nM.

`CC[C@H](C)[C@H](NC(=O)[C@@H]1CCCN1C(=O)[C@H](CO)NC(=O)CNC(=O)[C@H](CC(=O)O)NC(=O)[C@H](CC(C)C)NC(=O)[C@@H](NC(=O)[C@H](CCCCN)NC(=O)[C@@H](N)Cc1ccccc1)C(C)C)C(=O)O` [3102.1070] (H-FKVLDGSPI-OH) gave a half-maximal inhibitory concentration (IC50) of 0.82 nM.

For `CC[C@H](C)[C@H](NC(=O)[C@H](CC(N)=O)NC(=O)[C@@H](NC(=O)[C@H](CCCCN)NC(=O)[C@@H](N)Cc1ccccc1)[C@@H](C)CC)C(=O)N[C@@H](Cc1ccccc1)C(=O)N[C@@H](CCSC)C(=O)N[C@@H](C)C(=O)N[C@@H](Cc1ccccc1)C(=O)O` [3102.1074] (H-FKINIFMAF-OH), the IC50 is 10 nM.

Turning to `CC[C@H](C)[C@H](NC(=O)[C@H](CC(N)=O)NC(=O)[C@H](Cc1c[nH]cn1)NC(=O)[C@H](CCC(N)=O)NC(=O)[C@@H](N)C(C)C)C(=O)N[C@@H](CCCCN)C(=O)N[C@@H](Cc1c[nH]cn1)C(=O)N[C@@H](CO)C(=O)N[C@@H](Cc1ccccc1)C(=O)O` [3102.1075] (H-VQHNIKHSF-OH), the concentration for half-maximal inhibition (IC50) came out at 0.2 nM.

Take `CSCC[C@H](NC(=O)[C@H](CO)NC(=O)[C@H](CCCNC(=N)N)NC(=O)[C@@H]1CCCN1C(=O)[C@H](Cc1ccccc1)NC(=O)[C@H](CCCCN)NC(=O)[C@H](CO)NC(=O)[C@H](CCCCN)NC(=O)[C@H](C)N)C(=O)O` [3102.1076] (H-AKSKFPRSM-OH): the concentration for half-maximal inhibition (IC50) was found to be 0.26 nM. The IC50 values of the last two molecules are within 1.5-fold of each other.

For `CC[C@H](C)[C@H](NC(=O)CNC(=O)[C@H](C)NC(=O)[C@H](Cc1ccc(O)cc1)NC(=O)[C@H](CCCCN)NC(=O)[C@@H](N)CO)C(=O)N[C@@H](CC(N)=O)C(=O)N[C@H](C(=O)N[C@@H](CC(C)C)C(=O)O)[C@@H](C)CC` [3102.1077] (H-SKYAGINIL-OH), the IC50 came to 0.27 nM.

Consider `C[C@@H](O)[C@H](N)C(=O)N[C@@H](CCCCN)C(=O)N[C@@H](Cc1ccccc1)C(=O)N[C@H](C(=O)N[C@@H](CC(=O)O)C(=O)N[C@@H](Cc1ccccc1)C(=O)N[C@@H](CCC(N)=O)C(=O)N[C@@H](CC(=O)O)C(=O)N[C@@H](Cc1ccccc1)C(=O)O)[C@@H](C)O` [3102.1078] (H-TKFTDFQDF-OH), for which the IC50 was found to be 2.2 nM.

The molecule `CC[C@H](C)[C@H](NC(=O)[C@H](CC(N)=O)NC(=O)[C@H](CC(N)=O)NC(=O)[C@H](Cc1ccccc1)NC(=O)[C@@H]1CCCN1C(=O)[C@H](CCCCN)NC(=O)[C@H](CCCNC(=N)N)NC(=O)[C@H](CCC(N)=O)NC(=O)[C@@H](N)Cc1ccccc1)C(=O)O` [3102.1079] (H-FQRKPFNNI-OH) showed a half-maximal inhibitory concentration (IC50) of 8.9 nM.

`CC[C@H](C)[C@H](NC(=O)[C@H](CCCCN)NC(=O)[C@@H](N)CCCNC(=N)N)C(=O)N[C@@H](CO)C(=O)N[C@@H](CO)C(=O)N[C@@H](CCCCN)C(=O)N[C@@H](CC(N)=O)C(=O)N[C@@H](CO)C(=O)N[C@@H](CCSC)C(=O)O` [3102.1080] (H-RKISSKNSM-OH) had a concentration for half-maximal inhibition (IC50) of 0.11 nM.

The molecule `CC[C@H](C)[C@H](NC(=O)[C@H](CO)NC(=O)[C@H](CCC(N)=O)NC(=O)[C@H](CCC(N)=O)NC(=O)[C@H](CC(C)C)NC(=O)[C@H](Cc1ccccc1)NC(=O)[C@H](CC(C)C)NC(=O)[C@@H](N)C(C)C)C(=O)N[C@@H](Cc1ccccc1)C(=O)O` [3102.1081] (H-VLFLQQSIF-OH) returned a 50% inhibitory concentration (IC50) of 0.61 nM.

Consider `CC[C@H](C)[C@H](NC(=O)[C@H](CO)NC(=O)[C@H](CO)NC(=O)[C@H](CCC(=O)O)NC(=O)[C@H](CC(N)=O)NC(=O)[C@H](Cc1ccccc1)NC(=O)[C@@H](NC(=O)[C@H](CCC(N)=O)NC(=O)[C@@H](N)Cc1ccccc1)C(C)C)C(=O)O` [3102.1082] (H-FQVFNESSI-OH), for which it took 5 nM to reach half-maximal inhibition (IC50).

`CC(C)C[C@H](NC(=O)[C@H](CCCCN)NC(=O)[C@H](CC(N)=O)NC(=O)[C@@H](NC(=O)[C@H](Cc1ccccc1)NC(=O)[C@H](CS)NC(=O)[C@@H](NC(=O)[C@H](CCCCN)NC(=O)[C@@H](N)CCCCN)C(C)C)C(C)C)C(=O)O` [3102.1086] (H-KKVCFVNKL-OH) yielded a 50% inhibitory concentration (IC50) of 4.5 nM.

For the molecule `CC(C)C[C@H](NC(=O)[C@H](C)NC(=O)[C@H](CCC(N)=O)NC(=O)[C@H](CCC(N)=O)NC(=O)[C@@H](NC(=O)[C@@H](N)Cc1ccccc1)[C@@H](C)O)C(=O)N[C@@H](CO)C(=O)N[C@@H](CO)C(=O)N[C@@H](Cc1ccccc1)C(=O)O` [3102.1087] (H-FTQQALSSF-OH), the IC50 turned out to be 6.4 nM.

The molecule `CC[C@H](C)[C@H](NC(=O)[C@H](CC(C)C)NC(=O)[C@@H](NC(=O)[C@H](CO)NC(=O)[C@@H](NC(=O)[C@H](CCCCN)NC(=O)[C@H](C)N)[C@@H](C)O)[C@@H](C)O)C(=O)N[C@@H](Cc1ccccc1)C(=O)N[C@@H](Cc1ccccc1)C(=O)O` [3102.1088] (H-AKTSTLIFF-OH) had a 50% inhibitory concentration (IC50) of 1.6 nM.

`CSCC[C@H](NC(=O)[C@H](CC(C)C)NC(=O)[C@H](CCSC)NC(=O)[C@@H](N)Cc1ccccc1)C(=O)N[C@@H](CCC(=O)O)C(=O)N[C@H](C(=O)N[C@@H](CCSC)C(=O)N[C@@H](Cc1ccccc1)C(=O)N[C@@H](Cc1ccccc1)C(=O)O)[C@@H](C)O` [3102.1089] (H-FMLMETMFF-OH) came in with an IC50 of 0.19 nM. This IC50 lies about 8.4-fold lower than the previous one.

`CC[C@H](C)[C@H](NC(=O)[C@@H](NC(=O)[C@@H](NC(=O)[C@H](C)NC(=O)[C@H](CCSC)NC(=O)[C@H](Cc1ccc(O)cc1)NC(=O)[C@H](C)NC(=O)[C@@H](N)CCCNC(=N)N)[C@@H](C)O)[C@@H](C)O)C(=O)N[C@@H](CC(C)C)C(=O)O` [3102.1091] (H-RAYMATTIL-OH) gave an IC50 of 18 nM.

`CSCC[C@H](NC(=O)[C@H](C)NC(=O)[C@H](CC(C)C)NC(=O)[C@H](CO)NC(=O)[C@H](CCCCN)NC(=O)[C@@H](N)CCSC)C(=O)N[C@H](C(=O)N[C@@H](C)C(=O)N[C@@H](Cc1ccccc1)C(=O)O)[C@@H](C)O` [3102.1092] (H-MKSLAMTAF-OH) showed a 50% inhibitory concentration (IC50) of 0.18 nM.

Molecule `CC[C@H](C)[C@H](N)C(=O)N[C@@H](CCSC)C(=O)N[C@@H](C)C(=O)N[C@@H](CC(C)C)C(=O)N[C@H](C(=O)N[C@H](C(=O)N[C@@H](CO)C(=O)N[C@H](C(=O)N[C@@H](Cc1ccccc1)C(=O)O)[C@@H](C)CC)C(C)C)[C@@H](C)CC` [3102.1093] (H-IMALIVSIF-OH) returned a concentration for half-maximal inhibition (IC50) of 4.5 nM.

As for `CC[C@H](C)[C@H](NC(=O)[C@@H](NC(=O)[C@@H]1CCCN1C(=O)[C@H](CCC(=O)O)NC(=O)[C@H](CO)NC(=O)[C@H](CO)NC(=O)[C@H](CCSC)NC(=O)[C@@H](N)Cc1ccc(O)cc1)[C@@H](C)CC)C(=O)N[C@@H](Cc1ccccc1)C(=O)O` [3102.1094] (H-YMSSEPIIF-OH), the concentration for half-maximal inhibition (IC50) was found to be 0.3 nM.

As for `CC[C@H](C)[C@H](NC(=O)[C@@H](NC(=O)[C@H](CC(N)=O)NC(=O)[C@H](CCC(=O)O)NC(=O)[C@@H]1CCCN1C(=O)[C@H](CO)NC(=O)[C@H](C)NC(=O)[C@H](CCSC)NC(=O)[C@@H](N)Cc1ccccc1)C(C)C)C(=O)O` [3102.1095] (H-FMASPENVI-OH), the half-maximal inhibitory concentration (IC50) was 6.4 nM.

`CC[C@H](C)[C@H](NC(=O)[C@@H](NC(=O)CNC(=O)[C@H](CCC(=O)O)NC(=O)[C@@H]1CCCN1C(=O)[C@H](CCC(N)=O)NC(=O)[C@@H](N)CCCCN)C(C)C)C(=O)N[C@@H](CC(C)C)C(=O)N[C@@H](Cc1ccccc1)C(=O)O` [3102.1100] (H-KQPEGVILF-OH) gave a 50% inhibitory concentration (IC50) of 3.7 nM.
